# System: Caco-2 bidirectional permeability, LC-MS/MS efflux ratio
# Experiment: Inhibitors of HPGD: Efflux Ratio Profiling
# Conditions: active compounds read low
# Text: Human 15-Hydroxyprostaglandin dehydrogenase (HPGD) catalyzes the inactivation of prostaglandin E2, and plays a major role in cancer biology by antagonizing the oncogenic potential of cyclooxygenase type 2 (COX2). Assays are available, based on absorbance/fluorescence increase of NADH with the substrate 15-OH prostaglandin E2. This bioassays provides profiling data on Caco-2 cell permeability of leads compounds developed for the HPGD project. This in vitro model is often predictive of in vivo efflux of the compound by measuring the ratio of transport in and out the plasma membrane of the Caco2-cell line. NIH Chemical Genomics Center [NCGC] Structural Genomics Consortium [SGC]
# 1. Buffer Preparation: Prepare 1M HEPES: add 23.83g HEPES to 100ml of 0.85% NaCl Prepare HBSS+ buffer: add 12.8ml of 1M HEPES in 0.85% NaCl to 500ml HBSS buffer. 2. Take out the compounds from -80 degrees C, ultrasonicate or pre-warm for a few minutes to thaw the compounds. 3. Solution preparation Prepare donor buffer: For A-to-B direction: HBSS buffer with 0.3% DMSO and 5uM Lucifer Yellow (LY): add 150 µl DMSO and 50 µl LY (5mM) into 50ml HBSS buffer (pH 7.4). HBSS buffer with 0.1% DMSO and 5 µM Lucifer Yellow (LY): add 50 µl DMSO and 50 µl LY (5mM) into 50ml HBSS buffer (pH 7.4). […] The T0, LY and T90, LY plates are read by FlexStation 3 at excitation of 485 nm and emission of 535 nm to determine LY permeability. […]
row,SMILES,efflux ratio
1,Cc1cccc(-n2cnc3cc(C(=O)N4CCCCC4)ccc32)c1,15
2,Cc1cc(-c2nnc3n2CCCCC3)c(C)n1-c1ccccc1,21
